In assay [1] the test system is human lung cancer A549. Briefly: MTT antiproliferative assay, A549. Type of assay: cell-based. Particulars: 48 h, mean ± SD, three independent experiments. As to the method:
(§1) These cell lines were cultured in Dulbecco's Modified Eagle Medium containing 10% (v/v) fetal bovine serum (FBS, Wisent) and 1% (v/v) Penicillin-Streptomycin Solution mixture (Beyotime, Shanghai, China) at 37 °C under 5% CO2. An MTT assay evaluated the cytotoxicity of lupeol derivatives toward the A549, MCF-7, HepG2, and LO2 cell lines. The cells were inoculated into 96-well plates (3 × 10^3 cells/well) and cultured for 24 h at 37 °C in 5% CO2. After that, a gradient concentration of the test drug was added to continue the incubation for 48 h. Subsequently, the MTT solution continued to incubate with the cells for 4 h. Afterward, the upper waste layer was discarded, and DMSO was added ([…], Tianjin, China). After the formazan completely dissolved, the absorbance of each well at 490 nm was measured with a microplate reader. The mean values were derived from three independent experiments.
In general terms: Tetrazolium assays rely on reduction of a dye to a coloured formazan, in cell work by metabolically active cells.

Assay [2] deals with human breast cancer MCF-7. Briefly: MTT antiproliferative assay, MCF-7. Type of assay: cell-based. Particulars: mean ± SD, three independent experiments. On the procedure: as §1
Assay [3] concerns human hepatocarcinoma HepG2. Put plainly: MTT antiproliferative assay, HepG2. Type of assay: cell-based. The settings on record: for IC50: MTT, 48 h, mean ± SD, three independent experiments; for SI (selectivity index): IC50 values on L02 cells/HepG2 cells. On the procedure:
as §1

Assay [4] deals with human hepatic LO2 cells. Particulars: read-out: IC50 LO2; MTT, 48 h, mean ± SD, three independent experiments. As to the method: as §1

Experimental findings from paper PMC11510666, “Thiazolidinedione-Conjugated Lupeol Derivatives as Potent Anticancer Agents Through a Mitochondria-Mediated Apoptotic Pathway” (Molecules, 2024) are described below.

In general, IC50 refers to the midpoint of a concentration-inhibition curve.

With `N.N.[Cl][Pt][Cl]` [Cisplatin, cisplatin, reference compound], the IC50 in assay [1] came out at 4.96 ± 0.48 µM; in assay [2] (48 h), 5.79 ± 0.49 µM; in assay [3], 4.65 ± 0.54 µM.
As to `C=C(C)C1CCC2(C)CCC3(C)C(CCC4C5(C)CCC(OC(=O)CN6C(=O)SC(=Cc7ccc(F)cc7)C6=O)C(C)(C)C5CCC43C)C12` (centres unmarked) [Compound 6a, Lupeol-3-[(1-Ethyl)-2]-5-(4-Fluorobenzylidene)-2,4-Thiazolidinedione], the IC50 in assay [1] was 17.3 ± 1.58 µM; in assay [2] (48 h) it was 24 ± 1.87 µM; in assay [3], 22.7 ± 1.59 µM; in assay [4], 92.6 ± 1.03 µM. The “SI (selectivity index)” value in assay [3] turned out to be 4.07.
For `C=C(C)C1CCC2(C)CCC3(C)C(CCC4C5(C)CCC(OC(=O)CN6C(=O)SC(=Cc7ccc(Cl)cc7)C6=O)C(C)(C)C5CCC43C)C12` (centres unmarked) [Compound 6b, Lupeol-3-[(1-Ethyl)-2]-5-(4-Chlorobenzylidene)-2,4-Thiazolidinedione] the same measures were 14.2 ± 1.72 µM, 13.8 ± 0.75 µM, 16.6 ± 1.38 µM, 70.5 ± 1.51 µM and 4.25.
Turning to `C=C(C)C1CCC2(C)CCC3(C)C(CCC4C5(C)CCC(OC(=O)CN6C(=O)SC(=Cc7ccc(C)cc7)C6=O)C(C)(C)C5CCC43C)C12` (centres unmarked) [Compound 6c, Lupeol-3-[(1-Ethyl)-2]-5-(4-Methylbenzylidene)-2,4-Thiazolidinedione], the IC50 stood at 10.4 ± 0.82 µM in assay [1], 22.1 ± 1.42 µM in assay [2] (48 h), 18.2 ± 1.27 µM in assay [3] and 76.4 ± 1.22 µM in assay [4]. For the same molecule, in assay [3], the “SI (selectivity index)” value stood at 4.2.
On to `C=C(C)C1CCC2(C)CCC3(C)C(CCC4C5(C)CCC(OC(=O)CN6C(=O)SC(=Cc7ccc(C(C)(C)C)cc7)C6=O)C(C)(C)C5CCC43C)C12` (centres unmarked) [Compound 6d, Lupeol-3-[(1-Ethyl)-2]-5-(4-Tert-Butylphenyl)-2,4-Thiazolidinedione], for which the IC50 amounted to 14.2 ± 1.43 µM in assay [1], 15.4 ± 1.22 µM in assay [2] (48 h), 10.9 ± 0.78 µM in assay [3] and 39.2 ± 1.07 µM in assay [4]. In assay [3], the “SI (selectivity index)” value worked out at 3.61.
For `C=C(C)C1CCC2(C)CCC3(C)C(CCC4C5(C)CCC(OC(=O)CN6C(=O)SC(=Cc7ccccc7OC)C6=O)C(C)(C)C5CCC43C)C12` (centres unmarked) [Compound 6e, Lupeol-3-[(1-Ethyl)-2]-5-(2-Methoxybenzylidene)-2,4-Thiazolidinedione] the same measures were 9.43 ± 0.74 µM, 12.5 ± 0.74 µM, 15.5 ± 0.86 µM, 70.8 ± 0.93 µM and 4.57.
Consider `C=C(C)C1CCC2(C)CCC3(C)C(CCC4C5(C)CCC(OC(=O)CN6C(=O)SC(=Cc7ccc(OC)c(OC)c7OC)C6=O)C(C)(C)C5CCC43C)C12` (centres unmarked) [Compound 6f, Lupeol-3-[(1-Ethyl)-2]-5-(2,3,4-Trimethoxybenzylidene)-2,4-Thiazolidinedione], for which the IC50 in assay [1] came to 10.3 ± 0.86 µM; in assay [2] (48 h), 16.1 ± 0.89 µM; in assay [3], 19.2 ± 1.57 µM; in assay [4], 85.3 ± 1.12 µM. Also, the “SI (selectivity index)” value in assay [3] is listed as 4.44.
For `C=C(C)C1CCC2(C)CCC3(C)C(CCC4C5(C)CCC(OC(=O)CN6C(=O)SC(=Cc7ccco7)C6=O)C(C)(C)C5CCC43C)C12` (centres unmarked) [Compound 6g, Lupeol-3-[(1-Ethyl)-2]-5-(2-Furanylmethylene)-2,4-Thiazolidinedione] the same measures were 14.9 ± 1.21 µM, 12.8 ± 0.22 µM, 15.3 ± 1.32 µM, 60.6 ± 1.84 µM and 3.95.
For `C=C(C)C1CCC2(C)CCC3(C)C(CCC4C5(C)CCC(OC(=O)CN6C(=O)SC(=Cc7cccs7)C6=O)C(C)(C)C5CCC43C)C12` (centres unmarked) [Compound 6h, Lupeol-3-[(1-Ethyl)-2]-5-(2-Thienylmethylene)-2,4-Thiazolidinedione] the same measures were 14 ± 1.39 µM, 11.3 ± 0.85 µM, 12.8 ± 0.97 µM, 58.4 ± 0.78 µM and 4.55.
As for `C=C(C)C1CCC2(C)CCC3(C)C(CCC4C5(C)CCC(OC(=O)CN6C(=O)SC(=CC(C)C)C6=O)C(C)(C)C5CCC43C)C12` (centres unmarked) [Compound 6i, Lupeol-3-[(1-Ethyl)-2]-5-(2-Methylpropylidene)-2,4-Thiazolidinedione], the IC50 in assay [1] stood at 11.3 ± 0.91 µM; in assay [2] (48 h), 8.7 ± 0.12 µM; in assay [3], 9.48 ± 0.71 µM; in assay [4], 45.5 ± 1.33 µM. The “SI (selectivity index)” value in assay [3] amounted to 4.80.
`C=C(C)C1CCC2(C)CCC3(C)C(CCC4C5(C)CCC(OC(=O)N6CCN(C(=O)CN7C(=O)SC(=Cc8ccc(F)cc8)C7=O)CC6)C(C)(C)C5CCC43C)C12` (centres unmarked) [Compound 9a, Lupeol-3-[(1-Piperazinyl)-4]-5-(4-Fluorobenzylidene)-2,4-Thiazolidinedione]: the IC50 was determined as 18.7 ± 1.25 µM in assay [1], 19.1 ± 1.78 µM in assay [2] (48 h), 20.5 ± 1.62 µM in assay [3] and 79.1 ± 1.25 µM in assay [4]. For the same molecule, in assay [3], the “SI (selectivity index)” value worked out at 3.87.
Take `C=C(C)C1CCC2(C)CCC3(C)C(CCC4C5(C)CCC(OC(=O)N6CCN(C(=O)CN7C(=O)SC(=Cc8ccc(Cl)cc8)C7=O)CC6)C(C)(C)C5CCC43C)C12` (centres unmarked) [Compound 9b, Lupeol-3-[(1-Piperazinyl)-4]-5-(4-Chlorobenzylidene)-2,4-Thiazolidinedione]: the IC50 in assay [1] stood at 15.5 ± 0.64 µM; in assay [2] (48 h), 14 ± 0.87 µM; in assay [3], 18.1 ± 1.73 µM; in assay [4], 80.5 ± 1.79 µM. In addition, the “SI (selectivity index)” value in assay [3] worked out at 4.44.
In the same order, the values of `C=C(C)C1CCC2(C)CCC3(C)C(CCC4C5(C)CCC(OC(=O)N6CCN(C(=O)CN7C(=O)SC(=Cc8ccc(C)cc8)C7=O)CC6)C(C)(C)C5CCC43C)C12` (centres unmarked) [Compound 9c, Lupeol-3-[(1-Piperazinyl)-2]-5-(4-Methylbenzylidene)-2,4-Thiazolidinedione] are 12.7 ± 0.68 µM, 16.3 ± 0.76 µM, 15.7 ± 1.52 µM, 65.1 ± 0.93 µM and 4.14.
For the molecule `C=C(C)C1CCC2(C)CCC3(C)C(CCC4C5(C)CCC(OC(=O)N6CCN(C(=O)CN7C(=O)SC(=Cc8ccc(C(C)(C)C)cc8)C7=O)CC6)C(C)(C)C5CCC43C)C12` (centres unmarked) [Compound 9d, Lupeol-3-[(1-Piperazinyl)-4]-5-(4-Tert-Butylphenyl)-2,4-Thiazolidinedione], the IC50 in assay [1] was 11.7 ± 0.75 µM; in assay [2] (48 h), 18.1 ± 1.93 µM; in assay [3] it was 9.52 ± 0.61 µM; in assay [4], 42.2 ± 1.28 µM. The “SI (selectivity index)” value in assay [3] is given as 4.43.
For `C=C(C)C1CCC2(C)CCC3(C)C(CCC4C5(C)CCC(OC(=O)N6CCN(C(=O)CN7C(=O)SC(=Cc8ccccc8OC)C7=O)CC6)C(C)(C)C5CCC43C)C12` (centres unmarked) [Compound 9e, Lupeol-3-[(1-Piperazinyl)-4]-5-(2-Methoxybenzylidene)-2,4-Thiazolidinedione] the same measures were 10.4 ± 0.38 µM, 18.6 ± 1.27 µM, 16.5 ± 1.26 µM, 63.3 ± 1.14 µM and 3.83.
On to `C=C(C)C1CCC2(C)CCC3(C)C(CCC4C5(C)CCC(OC(=O)N6CCN(C(=O)CN7C(=O)SC(=Cc8ccc(OC)c(OC)c8OC)C7=O)CC6)C(C)(C)C5CCC43C)C12` (centres unmarked) [Compound 9f, Lupeol-3-[(1-Piperazinyl)-4]-5-(2,3,4-Trimethoxybenzylidene)-2,4-Thiazolidinedione], for which the IC50 is 9.24 ± 0.48 µM in assay [1], 9.19 ± 0.46 µM in assay [2] (48 h), 10.8 ± 0.45 µM in assay [3] and 56.1 ± 0.77 µM in assay [4]. The “SI (selectivity index)” value in assay [3] came to 5.19.
For `C=C(C)C1CCC2(C)CCC3(C)C(CCC4C5(C)CCC(OC(=O)N6CCN(C(=O)CN7C(=O)SC(=Cc8ccco8)C7=O)CC6)C(C)(C)C5CCC43C)C12` (centres unmarked) [Compound 9g, Lupeol-3-[(1-Piperazinyl)-4]-5-(2-Furanylmethylene)-2,4-Thiazolidinedione] the same measures were 9.91 ± 0.42 µM, 12 ± 0.75 µM, 15 ± 0.74 µM, 62.77 ± 0.62 µM and 4.19.
With `C=C(C)C1CCC2(C)CCC3(C)C(CCC4C5(C)CCC(OC(=O)N6CCN(C(=O)CN7C(=O)SC(=Cc8cccs8)C7=O)CC6)C(C)(C)C5CCC43C)C12` (centres unmarked) [Compound 9h, Lupeol-3-[(1-Piperazinyl)-4]-5-(2-Thienylmethylene)-2,4-Thiazolidinedione], the IC50 in assay [1] was determined as 16.4 ± 1.69 µM; in assay [2] (48 h) it was 13.8 ± 0.58 µM; in assay [3] it was 15.3 ± 0.98 µM; in assay [4] it was 68.9 ± 1.19 µM. Moreover, the “SI (selectivity index)” value in assay [3] amounted to 4.50.
`C=C(C)C1CCC2(C)CCC3(C)C(CCC4C5(C)CCC(OC(=O)N6CCN(C(=O)CN7C(=O)SC(=CC(C)C)C7=O)CC6)C(C)(C)C5CCC43C)C12` (centres unmarked) [Compound 9i, Lupeol-3-[(1-Piperazinyl)-4]-5-(2-Methylpropylidene)-2,4-Thiazolidinedione]: the IC50 in assay [1] came out at 13.8 ± 0.84 µM; in assay [2] (48 h), 20.1 ± 1.59 µM; in assay [3] it was 6.91 ± 0.31 µM; in assay [4], 35.4 ± 0.72 µM. Further, the “SI (selectivity index)” value in assay [3] turned out to be 5.12.
For the molecule `C=C(C)[C@@H]1CC[C@]2(C)CC[C@]3(C)[C@H](CC[C@@H]4[C@@]5(C)CC[C@H](O)C(C)(C)[C@@H]5CC[C@]43C)[C@@H]12` [Lupeol], the IC50 is 62 ± 1.79 µM in assay [2] (Homo sapiens, MCF7, 48 h) and 43.6 ± 1.37 µM in assay [3] (Homo sapiens, HepG2).
